Laboratory results published in patent US8669360B2, “Methods of converting amorphous drug substance into crystalline form” (Boston Scientific Scimed, Inc., priority 2011, dated 2014).

Columns and labels:
[1] = Approximate solubility of amorphous everolimus in solvents; assay type: physicochemical; settings: room temperature
Protocol: Approximate solubilities of amorphous everolimus were determined by adding the drug gradually with stirring at room temperature to a fixed volume of the solvent until solid remained visible.

[2] = Comparative aqueous solubility of amorphous and crystalline everolimus (FIG. 3); assay type: physicochemical; settings: aqueous solubility at body temperature (37° C.)
From the text: FIG. 3 is a graph showing the relative water solubilities of the amorphous and crystalline forms of everolimus.

| Structure (SMILES) | Amorphous Everolimus Solubilities ([1]; solvent ACN/water 3:2 v/v) [mg/mL] | Amorphous Everolimus Solubilities ([1]; solvent ACN) [mg/mL] | Amorphous Everolimus Solubilities ([1]; solvent Acetone) [mg/mL] | Amorphous Everolimus Solubilities ([1]; solvent DCM) [mg/mL] | Amorphous Everolimus Solubilities ([1]; solvent DMF/DCM w/w) [mg/mL] | Amorphous Everolimus Solubilities ([1]; solvent DMF/EtOAc w/w) [mg/mL] | Amorphous Everolimus Solubilities ([1]; solvent DMF/THF w/w) [mg/mL] | Amorphous Everolimus Solubilities ([1]; solvent DMF) [mg/mL] | Amorphous Everolimus Solubilities ([1]; solvent EtOH) [mg/mL] | Amorphous Everolimus Solubilities ([1]; solvent IPA) [mg/mL] | Amorphous Everolimus Solubilities ([1]; solvent MEK) [mg/mL] | Amorphous Everolimus Solubilities ([1]; solvent MTBE) [mg/mL] | Amorphous Everolimus Solubilities ([1]; solvent THF) [mg/mL] | Amorphous Everolimus Solubilities ([1]; solvent ethyl acetate) [mg/mL] | Amorphous Everolimus Solubilities ([1]; solvent m-xylene) [mg/mL] | Amorphous Everolimus Solubilities ([1]; solvent n-heptane) [mg/mL] | Amorphous Everolimus Solubilities ([1]; solvent p-dioxane) [mg/mL] | Amorphous Everolimus Solubilities ([1]; solvent water) [mg/mL] | Solubility of crystalline everolimus, times lower than that of amorphous everolimus [2] |
| --- | --- | --- | --- | --- | --- | --- | --- | --- | --- | --- | --- | --- | --- | --- | --- | --- | --- | --- | --- |
| CO[C@H]1C[C@@H]2CC[C@@H](C)[C@@](O)(O2)C(=O)C(=O)N2CCCC[C@H]2C(=O)O[C@H]([C@H](C)C[C@@H]2CC[C@@H](OCCO)[C@H](OC)C2)CC(=O)[C@H](C)/C=C(\C)[C@@H](O)[C@@H](OC)C(=O)[C@H](C)C[C@H](C)/C=C/C=C/C=C/1C [Amorphous Everolimus, 40-O-(2-Hydroxyethyl)rapamycin] | ~52 | ~100 | ~100 | ~46 | ~142 | ~119 | ~112 | ~49 | ~100 | ~15 | ~70 | ~62 | ~67 | ~100 | ~76 | ~0.5 | ~58 | ~0.1 |  |
| CO[C@H]1C[C@@H]2CC[C@@H](C)[C@@](O)(O2)C(=O)C(=O)N2CCCC[C@H]2C(=O)O[C@H]([C@H](C)C[C@@H]2CC[C@@H](OCCO)[C@H](OC)C2)CC(=O)[C@H](C)/C=C(\C)[C@@H](O)[C@@H](OC)C(=O)[C@H](C)C[C@H](C)/C=C/C=C/C=C/1C [crystalline everolimus, 40-O-(2-Hydroxyethyl)rapamycin] |  |  |  |  |  |  |  |  |  |  |  |  |  |  |  |  |  |  | about 25 times |
